Assay results taken from EP4480314A1, “BENEFICIAL SALTS FOR ENHANCING BIOCONTROL EFFICACY OF FUNGAL SPORES” (priority 2023, dated 2024).
In brackets after ≈: the same amount, converted by molar mass.

Legend:
[1] = cited from earlier work
[2] = cited from earlier work; remark: listed apart in the source
Bemisia tabaci [3] = experiment: Insecticidal activity against white flies on single-leaf cotton plants, spray application (Example 1, spores of C. javanica strain Apopka 97); type: in vivo; set-up: expected control (Colby) less than the observed level of control: concentration or dose not given beside the values; conditions: for expected control (Colby) less than the observed level of control: in composition with 1,0E+07 spores/ml C. javanica Apopka 97; for Abbott efficacy: spores 1,0E+07 s/ml, cotton, twelve days after treatment, control pure water; for White fly mortality: composition of spores and salt compared with spores alone or the salt alone
white flies = conditions: spores of C. fumosorosea supplemented with low concentrations of the acid in the spray liquid; PCT/EP2022/086495; cited from earlier work
Bemisia tabaci [4] = experiment: Insecticidal activity against white flies on bean plants (Phaseolus vulgaris), microsprayer application (Example 2, spores of C. javanica strain GF 511); type: in vivo
Method: For testing insecticidal activity against white flies, 9-day-old plants (Phaseolus vulgaris cv. Pérola) with two primary leaves grown with Oxisol (2 L) with fertilizer NPK 5-30-15 were kept in a screenhouse covered with a fine screen fabric (50 mesh). Adult-infested plants with Bemisia tabaci were shaken and placed next to pest-free bean plants (9 days old with two primary leaves) for 6 to 8h to allow oviposition. This exposure provided more than 200 eggs per leaf. Afterwards the plants were transferred to a clean and insect-free room and incubated at 25°C until hatching and development of immobile N2 nymphal stages (10 to 12 days after infestation). Per treatment, seven pots with four bean plants in the two-leave stage were used as biological replicates. The experiment was conducted in a randomized block design in five screenhouse benches, one for each repetition, with the treatments randomized within the block.
Before spraying, whitefly nymphs were checked for good coverage on the leaves and the infected plants were sprayed with the prepared solutions as detailed above. […] The amount is adjusted in function of the size of the primary leaves in order to ensure a good coverage. Afterwards, the plants are incubated under controlled conditions (30 °C and 40 % RH). Fourteen days after treatment, one plant/pot (two leaves per treatment) were destructively evaluated for insect mortality. Nymphal mortality was assessed under a dissecting stereomicroscope (Leica) at x40 magnification. For confirming the fungal infection, a small red dot was marked on the leaf next to the dead nymphs. The leaves were then incubated inside Gerbox box with a wet cotton added to the leaf petiole for four days at room temperature. The dead marked nymphs presenting sporulation (i.e., mycosed nymphs) were considered infected by the fungus.

[5] = Table 2, citric acid 0,05%, ammonium citrate di-basic 0,06%, potassium citrate 0,08%
[6] = Table 1, citric acid 0,1%, glutamic acid monosodic salt 0,08%

N[C@@H](Cc1c[nH]c2ccccc12)C(=O)O [Tryptophan]
pka(1) [1]: 2,46 | water solubility (g/l) at room temperature [2]: 11,4 g/l

O=C([O-])CC(O)(CC(=O)[O-])C(=O)[O-].[K+].[K+].[K+] [potassium citrate]
expected control (Colby) less than the observed level of control (Bemisia tabaci [3]; Table 2): 11,7% | Abbott efficacy (Bemisia tabaci [3]; [5]): 1,74 | White fly mortality (Bemisia tabaci [3]): significantly and synergistically higher

CC(C)[C@H](N)C(=O)O [Valine]
pka(1) [1]: 2,39

O=C(O)CC(O)C(=O)O (stereo not shown) [Malic acid]
water solubility (g/l) at room temperature [2]: 558 g/L (≈ 4160 mM)

O=C(O)c1ccccn1 [Picolinic acid]
pka(1) [1]: 5,39 | water solubility (g/l) at room temperature [2]: 887 g/L (≈ 7200 mM)

O=C(O)C=C(CC(=O)O)C(=O)O [Aconitic acid]
pka(1) [1]: 2,8 | water solubility (g/l) at room temperature [2]: 400 g/L (≈ 2300 mM)

O=C(O)c1cccc(C(=O)O)n1 [Dipicolinic acid]
efficacy of this entomopathogenic fungus against white flies (white flies): increase the efficacy

N[C@@H](CCC(=O)O)C(=O)[O-].[Na+] [glutamic acid monosodic salt, glutamic acid monosodium salt]
Abbott efficacy (Bemisia tabaci [4]): 7,57 | expected control (Colby) less than the observed level of control (Bemisia tabaci [4]): 11,03% | expected control (Colby) less than the observed level of control (Bemisia tabaci [3]; Table 1): 26,44% | Abbott efficacy (Bemisia tabaci [3]; [6]): -0,34 | White fly mortality (Bemisia tabaci [3]): significantly and synergistically higher

O=C(O)CC(O)(CC(=O)O)C(=O)O [citric acid, Citric acid, reference compound]
efficacy of this entomopathogenic fungus against white flies (white flies): increase the efficacy | Abbott efficacy (Bemisia tabaci [4]; Table 3, spores 1,0E+07 s/ml, citric acid 0,05%, glutamic acid monosodium salt 0,08%, all with 0,05% Tween, bean plants, fourteen days after treatment, control Tween 80 (0.05% v/v)): 3.56 | expected control (Colby) less than the observed level of control (Bemisia tabaci [3]; Table 1): 11,63% | Abbott efficacy (Bemisia tabaci [3]; [6]): 9,86 | expected control (Colby) less than the observed level of control (Bemisia tabaci [3]; Table 2): 24,27% | Abbott efficacy (Bemisia tabaci [3]; [5]): 7,88

N[C@@H](Cc1ccccc1)C(=O)O [Phenylalanine]
water solubility (g/l) at room temperature [2]: >10 g/L

CC[C@H](C)[C@H](N)C(=O)O [Isoleucine]
pka(1) [1]: 2,32

O=C(O)CCC(=O)C(=O)O [alpha-ketoglutaric acid]
water solubility (g/l) at room temperature [2]: 100 g/L (≈ 684 mM)

O=C(O)c1ccnc(C(=O)O)c1 [Lutidinic acid]
pka(1) [1]: 2,17

N.N.O=C(O)CC(O)(CC(=O)O)C(=O)O [ammonium citrate di-basic]
expected control (Colby) less than the observed level of control (Bemisia tabaci [3]; Table 2): 27,89% | Abbott efficacy (Bemisia tabaci [3]; [5]): 6,34 | White fly mortality (Bemisia tabaci [3]): significantly and synergistically higher

O=C(O)c1ccc(C(=O)O)nc1 [Isocinchomeronic acid]
pka(1) [1]: 2,31

O=C(O)CC(C(=O)O)C(O)C(=O)O (stereo not shown) [Isocitric acid]
water solubility (g/l) at room temperature [2]: 53 g/L (≈ 276 mM)

N[C@@H](C[SeH])C(=O)O [Selenocysteine]
water solubility (g/l) at room temperature [2]: 400 g/L (≈ 2380 mM)

O=C(O)c1cccnc1C(=O)O [Chinolinic acid]
water solubility (g/l) at room temperature [2]: 10 g/L (≈ 59.8 mM)
